Source: publication PMC10714133 (RSC Advances, 2023)

Key:
[1] = system: P. knowlesi A1H1; test: Plasmodium lactate dehydrogenase; format: cell-based, Plasmodium knowlesi; conditions: for Selectivity index (SI) P. knowlesi: IC50 WRL-68 / EC50 PkA1H1; for Antimalarial activity class against A1H1 strain: class by EC50 threshold; for EC50 against A1H1 strain, fold higher than CQ: relative to chloroquine diphosphate
[2] = system: P. falciparum 3D7; test: Plasmodium lactate dehydrogenase; format: cell-based, Plasmodium falciparum; conditions: for Antimalarial activity class against 3D7 strain: class by EC50 threshold; for EC50 against 3D7, fold higher than CQ: relative to chloroquine diphosphate; for Selectivity index (SI) P. falciparum: IC50 WRL-68 / EC50 Pf3D7
[3] = system: WRL-68 cell (human normal liver cell line); test: MTT cytotoxicity assay; format: cell-based; conditions: read-out: WRL-68 cell (mammalian cell) IC50 (μM) ± SD, 72 hours incubation

| Structure (SMILES) | Selectivity index (SI) P. knowlesi [1] | Selectivity index (SI) P. falciparum [2] | other results |
| --- | --- | --- | --- |
| O=C(/C=C/c1cccc(O)c1)c1ccc(Cl)cc1 [Compound 1d, (E)-1-(4-Chlorophenyl)-3-(3-hydroxyphenyl)prop-2-en-1-one] | 0.31 | – | – |
| O=C(/C=C/c1ccc(CN2CCCCC2)c(O)c1)c1ccc(F)cc1 [Compound 2a, (E)-1-(4-Fluorophenyl)-3-(3-hydroxy-4-(piperidin-1-ylmethyl)phenyl)prop-2-en-1-one] | 10.50 | – | Antimalarial activity class against A1H1 strain [1]: active; EC50 against A1H1 strain, fold higher than CQ [1]: about 66 fold; Antimalarial activity class against 3D7 strain [2]: potential (EC50 < 1 μM as potential activity); EC50 against 3D7, fold higher than CQ [2]: about 48 fold |
| CC1CCN(Cc2cc(/C=C/C(=O)c3ccc(Cl)cc3)ccc2O)CC1 [Compound 2f, (E)-1-(4-Chlorophenyl)-3-(4-hydroxy-3-((4-methylpiperidin-1-yl)methyl)phenyl)prop-2-en-1-one] | 4.10 | 4.73 | Antimalarial activity class against A1H1 strain [1]: active; Antimalarial activity class against 3D7 strain [2]: good |
| O=C(/C=C/c1ccc(O)cc1)c1ccc(F)cc1 [Compound 1b, (E)-1-(4-Fluorophenyl)-3-(4-hydroxyphenyl)prop-2-en-1-one] | 0.14 | – | – |
| CC1CCN(Cc2ccc(/C=C/C(=O)c3ccc(Cl)cc3)cc2O)CC1 [Compound 2g, (E)-1-(4-Chlorophenyl)-3-(3-hydroxy-4-((4-methylpiperidin-1-yl)methyl)phenyl)prop-2-en-1-one] | 0.47 | 0.54 | – |
| O=C(/C=C/c1ccc(O)c(CN2CCCCC2)c1)c1ccc(F)cc1 [Compound 2c, (E)-1-(4-Fluorophenyl)-3-(4-hydroxy-3-(piperidin-1-ylmethyl)phenyl)prop-2-en-1-one] | 1.09 | – | – |
| O=C(/C=C/c1ccc(CN2CCCCC2)c(O)c1)c1ccc(Br)cc1 [Compound 2h, (E)-1-(4-Bromophenyl)-3-(3-hydroxy-4-(piperidin-1-ylmethyl)phenyl)prop-2-en-1-one] | – | – | IC50 [3]: > 99 µM; EC50 against A1H1 strain, fold higher than CQ [1]: about 3 fold; Antimalarial activity class against 3D7 strain [2]: potential (EC50 < 1 μM as potential activity); EC50 against 3D7, fold higher than CQ [2]: 83 fold |
| O=C(/C=C/c1cccc(O)c1)c1ccc(F)cc1 [Compound 1a, (E)-1-(4-Fluorophenyl)-3-(3-hydroxyphenyl)prop-2-en-1-one] | 1.34 | 1.50 | – |
| CCN(CC)CCCC(C)Nc1ccnc2cc(Cl)ccc12 (stereo not drawn) [CQ, chloroquine diphosphate, reference compound] | >2500 | >2500 | – |
| O=C(/C=C/c1ccc(O)cc1)c1ccc(Cl)cc1 [Compound 1c, (E)-1-(4-Chlorophenyl)-3-(4-hydroxyphenyl)prop-2-en-1-one] | 0.52 | – | – |
| O=C(/C=C/c1ccc(O)c(CN2CCOCC2)c1)c1ccc(F)cc1 [Compound 2b, (E)-1-(4-Fluorophenyl)-3-(4-hydroxy-3-(morpholinomethyl)phenyl)prop-2-en-1-one] | 0.65 | – | – |
